We go through 14 molecules from patent publication US9604974B2, “Compounds as modulator of JAK-STAT pathway, methods and applications thereof” (UNIVERSITY OF MYSORE, priority 2015, dated 2017).

Bounds are passed on as bounds.

One assay deals with phospho-STAT3 (Y705). The experiment in a line: Western blot of constitutive phospho-STAT3 (Y705) in HepG2. Type of assay: cell-based, human. The conditions noted are these: HepG2, 6 hours. Here is the method:
FIG. 2 depicts the suppression of phospho-STAT3 by compound 1 (CIMO) in a dose dependent manner [A]. HepG2 cells (5×10^5/mL) are treated with the indicated concentrations of CIMO for 6 hours, after which whole-cell extracts are prepared and resolved on SDS-PAGE gel, electrotransferred onto nitrocellulose membrane, and probed for phospho-STAT3. The same blot is stripped and reprobed with STAT3 antibody to verify equal protein loading. […] HepG2 cells (5×10^5/mL) are treated with the indicated concentrations of AG490 for about 6 hours, after which Western Blotting is done as described for [A]. [C] depicts the suppression of phospho-STAT3 levels by Compound 1 (CIMO) in a time-dependent manner. HepG2 cells (5×10^5/mL) are treated with 10 μMol/L CIMO for the indicated times, after which Western blotting is done as described for [A]. [D] depicts that compound 1 (CIMO) has no effect on phospho-STAT3 (Ser-727) and STAT3 protein expression. HepG2 cells (5×10^5/mL) are treated with 10 μMol/L CIMO for the indicated times, after which Western Blotting is done as described for [A] and membrane is probed using antibodies against phospho-STAT3 (Ser-727) and STAT3. […] HepG2 cells (1×10^5/mL) are incubated with or without 10 μMol/L CIMO for about 6 hours and then analyzed for the intracellular distribution of STAT3 by immunocytochemistry. The same slides are counterstained for nuclei with Hoechst (50 ng/mL) for about 5 minutes and analyzed under an fluorescencemicroscope. […] HepG2 cells (5×10^5/mL) are treated with 10 μMol/L CIMO, after which whole-cell extracts are prepared, resolved in SDS-PAGE, electrotransferred onto nitrocellulose membrane, and probed with phospho-Src, phospho-JAK1 and phospho-JAK2 antibodies. The same blots are stripped and reprobed with Src, JAK1 and JAK2 antibodies to verify equal protein loading. [G] depicts the suppression of STAT3 DNA binding ability by Compound 1 (CIMO) in HepG2 cells. HepG2 cells are treated with 10 μMol/L CIMO for the indicated time, nuclear extracts are prepared, and 5 μg of the nuclear extract protein is used for ELISA-based DNA-binding assay.
CIMO is tested towards the inhibition of constitutive activation of STAT3 in HepG2 cells by Western Blotting via antibodies recognising phospho-STAT3 (Y705). For detection of phospho-proteins, CIMO treated whole-cell extracts are lysed in lysis buffer [20 mM Tris (pH 7.4), 250 mM NaCl, 2 mM Ethylenediaminetetraacetic acid (pH 8.0), 0.1% Triton-X-100, 0.01 mg/ml aprotinin, 0.005 mg/ml leupeptin, 0.4 mM phenylmethanesulfonylfluoride, and 4 mM NaVO4). Lysates are then spun at 14,000 rpm for about 10 minutes to remove insoluble material and resolved on SDS gel. After electrophoresis, the proteins are electrotransferred to a nitrocellulose membrane, blocked with 5% non-fat milk, and probed with various antibodies (1:1000) overnight at about 4° C. The blot is washed, exposed to HRP-conjugated secondary antibodies for about 1 hour, and finally examined by chemiluminescence (ECL; GE Healthcare, Little Chalfont, Buckinghamshire, UK).
`N#C/C(=C/c1ccc(O)c(O)c1)C(=O)NCc1ccccc1` [AG490, reference compound]: the “concentration of maximum inhibition of phospho-STAT3” value was determined as 200 µM.

Still in this assay, the particulars now being: HepG2, Western blot, dose and time course.
Consider `N#C/C(=C/c1ccc(O)c(O)c1)C(=O)NCc1ccccc1` [AG490, reference compound], for which the “levels of phospho-STAT3 (Y705)” value is on record as “decreases the phosphorylation of STAT3 in a dose-dependent manner”.

Still in this assay, the particulars now being: HepG2, with 10 μMol/L CIMO, about 4 hours.
As to sodium pervanadate [reference compound], the “effect on CIMO-induced inhibition of STAT3 activation” value is recorded as “prevents CIMO-induced inhibition of STAT3 activation”.

Another assay deals with HepG2 cells. The experiment in a line: MTT anti-proliferative assay, HepG2. Type of assay: cell-based. Conditions: Homo sapiens; HepG2 cells after 72 hours, MTT. Here is the method: The anti-proliferative activity of Formula I compounds are studied on HepG2 cells using MTT assay. Briefly, the cells (2.5×10^4/ml) are incubated in triplicate in a 96-well plate in the presence or absence of different concentrations of compounds in a final volume of 0.2 ml up to 72 hours at 37° C. Thereafter, 20 μl MTT solution (5 mg/ml in PBS) is added to each well. After 2 hours of incubation at 37° C., 0.1 ml lysis buffer (20% SDS, 50% dimethyl-formamide) is added; incubation is continued overnight at 37° C.; and the optical density (OD) at 570 nm is measured by Tecan plate reader.
In turn, `COc1ccc(C2CNC(c3c[nH]c4ccccc34)OC23CCCCC3)cc1` (stereo not drawn) [Compound 6, 2-(indyl)-5-(4-methoxy-phenyl)-1-oxa-3-aza spiro(5,5) undecane] yielded a half-maximal inhibitory concentration (IC50) of 28.5 µM.

As to `COc1ccc(C2CNC(c3ccc(Br)cc3)OC23CCCCC3)cc1` (stereo not drawn) [Compound 4, 2-(4-Bromophenyl)-5-(4-methoxy-phenyl)-1-oxa-3-aza spiro(5,5) undecane], 37.1 µM corresponded to half-maximal inhibition (IC50).

With `COc1ccc(C2CNC(c3c(Cl)cccc3Cl)OC23CCCCC3)cc1` (stereo not drawn) [Compound 10, 2-(2,6-dichlorophenyl)-5-(4-methoxy-phenyl)-1-oxa-3-aza spiro(5,5) undecane], half-maximal inhibition (IC50) was put at 42.4 µM.

`COc1ccc(C2CNC(c3c(-c4ccccc4)[nH]c4ccccc34)OC23CCCCC3)cc1` (stereo not drawn) [Compound 5, 2-(2-phenylindyl)-5-(4-methoxy-phenyl)-1-oxa-3-aza spiro(5,5) undecane] yielded a concentration for half-maximal inhibition (IC50) of 9.8 µM.

In turn, `COc1ccc(C2CN(Cc3ccc(-c4ccccc4C#N)cc3)C(c3c(Cl)cccc3Cl)OC23CCCCC3)cc1` (stereo not drawn) [Compound 12] gave a half-inhibitory concentration (IC50) of more than 50 µM.

On to `COc1ccc(C2CNC(c3ccc4c(c3)CCO4)OC23CCCCC3)cc1` (stereo not drawn) [Compound 11, 2-(2,3-Dihydro-benzofuran-5-yl)-5-(4-methoxy-phenyl)-1-oxa-3-aza-spiro[5.5]undecane], for which the half-maximal inhibitory concentration (IC50) was more than 50 µM.

As to `CCCCc1nc(Cl)c(C2NCC(c3ccc(OC)cc3)C3(CCCCC3)O2)n1Cc1ccc(Oc2ccccc2)cc1` (stereo not drawn) [Compound 7], 15.8 µM corresponded to half-maximal inhibition (IC50).

The molecule `CCCCc1nc(Cl)c(C2NCC(c3ccc(OC)cc3)C3(CCCCC3)O2)[nH]1` (stereo not drawn) [Compound 2, 2-(2-butyl-5-chloro-3H-imidazol-4-yl)-5-(4-methoxy-phenyl)-1-oxa-3-aza spiro(5,5) undecane] returned a half-maximal inhibitory concentration (IC50) of 38.7 µM. Compared with the last molecule, the IC50 is about 2.4-fold higher.

`COc1ccc(C2CNC(c3ccc(N(C)C)cc3)OC23CCCCC3)cc1` (stereo not drawn) [Compound 13, 2-(4-dimethylaminophenyl)-5-(4-methoxy-phenyl)-1-oxa-3-aza spiro(5,5) undecane] gave an IC50 of more than 50 µM.

With `COc1ccc(C2CNC(c3c(C)[nH]c4ccccc34)OC23CCCCC3)cc1` (stereo not drawn) [Compound 9, 2-(2-methylindyl)-5-(4-methoxy-phenyl)-1-oxa-3-aza spiro(5,5) undecane], the half-inhibitory concentration (IC50) is more than 50 µM.

As for `COc1ccc(C2CNC(c3coc4ccccc4c3=O)OC23CCCCC3)cc1` (stereo not drawn) [Compound 8, 3-[5-(4-Methoxy-phenyl)-1-oxa-3-aza-spiro[5.5]undec-2-yl]-chromen-4-one], half-maximal inhibition (IC50) required 28.8 µM. That is a double-digit micromolar value.

On to `CCCCc1nc(Cl)c(C2NCC(c3ccc(OC)cc3)C3(CCCCC3)O2)n1Cc1ccc(-c2ccccc2C#N)cc1` (stereo not drawn) [Compound 3, 2-(2-butyl-5-chloro-3-(4-(2-cyanophenyl)1-benzyl)-imidazol-4-yl)-5-(4-methoxy-phenyl)-1-oxa-3-aza spiro(5,5) undecane], for which inhibition was half-maximal at 14.3 µM (IC50).
